Test: Toxicity against mouse erythrocytes assessed as hemolytic activity
Type: cell-based, Erythrocyte
Conditions: read-out: ED50 (the source's name)

Row | Structure (SMILES) | HC50 [µM]
1 | CC(=O)[C@H]1CC[C@H]2[C@@H]3C[C@H](O)[C@H]4C[C@@H](OS(=O)(=O)O)CC[C@]4(C)C3=CC[C@]12C | > 500
2 | CC(C)CC(=O)C[C@](C)(O)[C@H]1CC[C@H]2[C@@H]3C[C@H](O)[C@H]4C[C@@H](OS(=O)(=O)O)CC[C@]4(C)C3=CC[C@@]21C [3-O-SULFOTHORNASTEROL A] | 110
3 | CC(C)[C@H](O)C(=O)C[C@@H](C)[C@H]1CC[C@H]2[C@@H]3C[C@H](O)[C@H]4C[C@@H](OS(=O)(=O)O)CC[C@]4(C)C3=CC[C@]12C [APHELAKETOTRIOL] | 40
4 | CC(C)[C@H](O)C(=O)C[C@@H](C)[C@H]1CC[C@H]2[C@@H]3C[C@H](O[C@H]4O[C@@H](C)[C@H](OS(=O)(=O)O)[C@@H](O)[C@@H]4O)[C@H]4C[C@@H](OS(=O)(=O)O)CC[C@]4(C)C3=CC[C@]12C [APHELASTEROSIDE C] | 190
5 | CC(=O)[C@H]1CC[C@H]2[C@@H]3C[C@H](O[C@H]4O[C@@H](C)[C@H](OS(=O)(=O)O)[C@@H](O)[C@@H]4O)[C@H]4C[C@@H](OS(=O)(=O)O)CC[C@]4(C)C3=CC[C@]12C [CHELIFEROSIDE L1] | 175
6 | CC(=O)[C@H]1CC[C@H]2[C@@H]3C[C@H](O[C@H]4O[C@@H](C)[C@H](O)[C@@H](O)[C@@H]4O)[C@H]4C[C@@H](OS(=O)(=O)O)CC[C@]4(C)C3=CC[C@]12C [FORBESIDE E3] | 330

Source: ChEMBL document CHEMBL1155574, “Hemolytic polar steroidal constituents of the starfish Aphelasterias japonica” (J Nat Prod, 2000)
